# ChEMBL document CHEMBL1135715, “DNA cleavage potency, cytotoxicity, and mechanism of action of a novel class of enediyne prodrugs” (J Med Chem, 2002)
# Tested on: P388
# Assay: Cytotoxicity, 50% inhibitory concentration against P388 Mouse T cell leukemia cell line by MTT assay
# Type: functional, cell-based
row,Structure (SMILES),IC50
1,CC(=O)OC1C#CCCCCC#C/C1=C\c1cccc2ccccc12 (stereo not given),2.4 µM
2,COCC(=O)OC(/C1=C/C#CCCCCC#C1)c1ccccc1 (stereo not given),7.7 µM
3,CC(=O)OC1C#CCCCCC#C/C1=C\c1ccc2ccccc2c1 (stereo not given),2.8 µM
4,COc1ccc(/C=C2\C#CCCCCC#CC2OC(C)=O)cc1 (stereo not given),15 µM
5,CC(=O)OC1C#CCCCCC#C/C1=C\c1ccccc1 (stereo not given),48 µM
6,COc1ccc(C(O)/C2=C/C#CCCCCC#C2)cc1 (stereo not given),13 µM
7,COCC(=O)OC1C#CCCCCC#C/C1=C\c1ccccc1 (stereo not given),23 µM
8,OC1C#CCCCCC#C/C1=C\c1ccc2ccccc2c1 (stereo not given),3.6 µM
9,COCC(=O)OC(/C1=C/C#CCCCCC#C1)c1cccc2ccccc12 (stereo not given),3.8 µM
10,COc1ccc(/C=C2\C#CCCCCC#CC2O)cc1 (stereo not given),5.8 µM
11,COCC(=O)OC1C#CCCCCC#C/C1=C\c1ccc2ccccc2c1 (stereo not given),28 µM
12,COCC(=O)OC(/C1=C/C#CCCCCC#C1)c1ccc2ccccc2c1 (stereo not given),9.5 µM
13,COCC(=O)OC1C#CCCCCC#C/C1=C\c1cccc2ccccc12 (stereo not given),12 µM
14,OC1C#CCCCCC#C/C1=C\c1cccc2ccccc12 (stereo not given),41 µM
15,OC1C#CCCCCC#C/C1=C\c1ccccc1 (stereo not given),25 µM
